This note sets out measurements from ChEMBL document CHEMBL1146245, “Antitumor agents. 258. Syntheses and evaluation of dietary antioxidant--taxoid conjugates as novel cytotoxic agents” (2007).

In brackets after ≈: the same amount, converted by molar mass. Activity calls are given as the source filed them. No cut-off for these calls is given here.

Holding throughout (assay type): functional
One assay has as its system 1A9. As to the kind of experiment: Cytotoxicity against human 1A9 cells by sulforhodamine B assay. Particulars: for EC50: read-out: ED50 (the source's name). Background: In SRB staining, fixed cells bind dye roughly in proportion to their protein.
Another assay has as its system HCT-8. Description: Cytotoxicity against human HCT8 cells.
A short description of assay [1]: Cytotoxicity against MDR human KB-VIN cells expressing P-glycoprotein. As to conditions: for EC50: KBVIN, read-out: ED50 (the source's name).
In the next assay the test system is KB. Description: Cytotoxicity against human KB cells by sulforhodamine B assay. As to conditions: for EC50: read-out: ED50 (the source's name).
For another assay, the system named is A549. Description: Cytotoxicity against human A549 cells. Particulars: for EC50: read-out: ED50 (the source's name).
The next assay relates to A-431. Description: Cytotoxicity against human A431 cells. As to conditions: for EC50: read-out: ED50 (the source's name).

For the compound `COc1cc(/C=C/C(=O)CC(=O)/C=C/c2ccc(O)c(OC)c2)ccc1O` [CURCUMIN], the outcome (with 1A9; in the assay on HCT-8; in assay [1]; in the assay on KB; in the assay with A549) was inactive. The EC50 in the assay on A-431 is 0.75 µg/mL (≈ 2.04 µM).

Consider `CC(=O)O[C@H]1C(=O)[C@]2(C)[C@@H](OC(=O)CCN3CCCCC3)C[C@H]3OC[C@@]3(OC(C)=O)[C@H]2[C@H](OCc2ccccc2)[C@]2(O)C[C@H](OC(=O)[C@H](OC(=O)CCC(=O)Oc3c(C)c(C)c4c(c3C)OC(C)(CCC[C@@H](C)CCC[C@@H](C)CCCC(C)C)CC4)[C@@H](NCc3ccccc3)c3ccccc3)C(C)=C1C2(C)C` (stereo partly drawn), for which the outcome (in the assay with 1A9; in the assay on HCT-8; in assay [1]; with KB; with A549; in the assay on A-431) was inactive.

As for `CCN(CC)CCC(=O)O[C@H]1C[C@H]2OC[C@@]2(OC(C)=O)[C@H]2[C@H](OCc3ccccc3)[C@]3(O)C[C@H](OC(=O)[C@H](OC(=O)CCC(=O)Oc4c(C)c(C)c5c(c4C)OC(C)(CCC[C@@H](C)CCC[C@@H](C)CCCC(C)C)CC5)[C@@H](NCc4ccccc4)c4ccccc4)C(C)=C([C@@H](OC(C)=O)C(=O)[C@]12C)C3(C)C` (stereo in doubt; 27), the outcome (with 1A9; with HCT-8; in assay [1]; with KB; in the assay with A549; in the assay with A-431) was inactive.

In the case of VITAMIN E, the result (in the assay with 1A9; in the assay with HCT-8; in assay [1]; in the assay on KB; with A549) was inactive. This compound had an ED50 in the assay on A-431 of 0.75 µg/mL.

Turning to `CC(=O)O[C@H]1C(=O)[C@@]2(C)[C@H]([C@H](OC(=O)c3ccccc3)[C@]3(O)C[C@H](OC(=O)[C@H](O)[C@@H](NC(=O)c4ccccc4)c4ccccc4)C(C)=C1C3(C)C)[C@]1(OC(C)=O)CO[C@@H]1C[C@@H]2O` [PACLITAXEL], the EC50 was determined as 0.001 µg/mL (≈ 0.00117 µM) with 1A9; 0.06 µg/mL (≈ 0.0703 µM) in the assay on HCT-8 (read-out: ED50 (the source's name)); 0.2 µg/mL (≈ 0.234 µM) in assay [1]; 0.002 µg/mL (≈ 0.00234 µM) with KB; 0.02 µg/mL (≈ 0.0234 µM) with A549; 0.01 µg/mL (≈ 0.0117 µM) in the assay with A-431.

As to `CCN(CC)CCC(=O)O[C@H]1C[C@H]2OC[C@@]2(OC(C)=O)[C@H]2[C@H](OCc3ccccc3)[C@]3(O)C[C@H](OC(=O)[C@H](OC(=O)CCC(=O)Oc4c(C)c(C)c5c(c4C)OC(C)(CCC[C@@H](C)CCC[C@@H](C)CCCC(C)C)CC5)[C@@H](NCc4ccccc4)c4ccccc4)C(C)=C([C@@H](OC(C)=O)C(=O)[C@]12C)C3(C)C` (stereo in doubt; 27a), the result (in the assay on 1A9; in the assay with HCT-8; in assay [1]; in the assay on KB; in the assay with A549; in the assay with A-431) was inactive.

Turning to `COc1cc(/C=C/C(=O)CC(=O)/C=C/c2ccc(OC(=O)CCC(=O)O[C@@H](C(=O)O[C@H]3C[C@@]4(O)[C@@H](OCc5ccccc5)[C@@H]5[C@]6(OC(C)=O)CO[C@@H]6C[C@H](O)[C@@]5(C)C(=O)[C@H](OC(C)=O)C(=C3C)C4(C)C)[C@@H](NCc3ccccc3)c3ccccc3)c(OC)c2)ccc1O`, the EC50 in the assay on 1A9 worked out at 0.03 µg/mL (≈ 0.0235 µM); in assay [1], 0.2 µg/mL (≈ 0.157 µM); in the assay with KB, 0.01 µg/mL (≈ 0.00783 µM); in the assay on A549, 0.03 µg/mL (≈ 0.0235 µM); in the assay with A-431 it was 0.03 µg/mL (≈ 0.0235 µM). Besides, the result with HCT-8 was inactive.

As for `CC(=O)O[C@H]1C(=O)[C@@]2(C)[C@H]([C@H](OCc3ccccc3)[C@]3(O)C[C@H](OC(=O)[C@H](OC(=O)CCC(=O)Oc4c(C)c(C)c5c(c4C)OC(C)(CCC[C@@H](C)CCC[C@@H](C)CCCC(C)C)CC5)[C@@H](NCc4ccccc4)c4ccccc4)C(C)=C1C3(C)C)[C@]1(OC(C)=O)CO[C@@H]1C[C@@H]2O` (stereo partly drawn), the outcome (in the assay on 1A9; in the assay with HCT-8; in assay [1]; in the assay on KB; in the assay on A549) was inactive. For the same compound, the EC50 in the assay on A-431 was determined as 0.1 µg/mL (≈ 0.0747 µM).
